Test results from ChEMBL document CHEMBL1201862, “PubChem BioAssay data set” (2004).
Activity calls are given as the source filed them. Unless noted, the rule behind the calls is not given here.

Experiments:
[1] = test system: Erythrocyte; experiment: FACS-based assay to assess parasite growth inhibition 96 hr Measured in Cell-Based System Using Flow Cytometry - 2126-05_Inhibitor_Dose_DryPowder_Activity. [Related pubchem assays (depositor defined):AID488774]; assay type: functional; conditions: Homo sapiens
[2] = FACS-based assay to assess parasite growth inhibition 48 hr Measured in Cell-Based System Using Flow Cytometry - 2126-03_Inhibitor_Dose_DryPowder_Activity. [Related pubchem assays (depositor defined):AID488774]; assay type: functional; conditions: Homo sapiens
[3] = A cell-based HTS for delayed death inhibitors of the malarial parasite plastid Measured in Microorganism System Using Plate Reader - 2126-02_Inhibitor_Dose_DryPowder_Activity.; assay type: functional, organism-based
[4] = A cell-based HTS for delayed death inhibitors of the malarial parasite plastid Measured in Microorganism System Using Plate Reader - 2126-01_Inhibitor_Dose_DryPowder_Activity.; assay type: functional, organism-based
[5] = molecular target: Melanin-concentrating hormone receptor 1 (Homo sapiens, UniProt Q99705); experiment: Late-stage fluorescence-based counterscreen for antagonists of the G-protein coupled receptor 7 (GPR7): cell-based dose response assay to identify antagonists of the melanin-concentrating hormone receptor 1 (MCHR1) Set 5.; assay type: functional
Sequence of Melanin-concentrating hormone receptor 1 (Q99705 whole entry): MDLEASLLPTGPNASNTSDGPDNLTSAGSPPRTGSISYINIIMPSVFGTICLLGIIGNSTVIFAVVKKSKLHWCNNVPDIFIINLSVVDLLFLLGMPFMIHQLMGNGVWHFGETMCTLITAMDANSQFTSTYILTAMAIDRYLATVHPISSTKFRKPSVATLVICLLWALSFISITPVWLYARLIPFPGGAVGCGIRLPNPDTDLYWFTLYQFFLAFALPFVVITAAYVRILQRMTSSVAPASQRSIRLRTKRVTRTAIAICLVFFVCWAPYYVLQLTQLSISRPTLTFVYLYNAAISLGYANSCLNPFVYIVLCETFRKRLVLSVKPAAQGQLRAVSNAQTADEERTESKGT

Row | IC50 [5] | SMILES | AC50 [1] | AC50 [2] | AC50 [3] | AC50 [4]
1 |  | COCCOC(=O)N(C)C[C@@H]1OCCCC[C@H](C)Oc2ccc(NC(=O)Nc3ccccc3)cc2C(=O)N([C@@H](C)CO)C[C@H]1C | 13.4 µM (active) | 10.9 µM (active) | > 5 µM (inactive) | > 5 µM (inactive)
2 | > 20 µM (inactive) | CCc1cccc(Oc2c(Cl)cnn(Cc3cccc4ccccc34)c2=O)c1 |  |  |  | 
